Data: US20230085307A1, “PYRIDAZINONE COMPOUND AND HERBICIDE” (NISSAN CHEMICAL CORPORATION, priority 2019, published 2023)

Columns and labels:
[1] = system: late watergrass; assay: Test Example 2: herbicidal activity, application during weed generation under submerged conditions (Table 17, symbol A); assay type: in vivo, late watergrass (Echinochloa oryzicola); settings: AAH 320 g/ha; application during weed generation, submerged conditions
Procedure, shortened: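 Effect on each weed is rated three weeks post-treatment, using the same scoring criteria as the preceding test. Plants grow from mixed-sown seed in flooded alluvial soil (4 cm water) at 25° C. to 30° C., and are treated at one to two leaves with diluted emulsion dropped onto the water.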

[2] = system: redroot pigweed; assay: Test Example 5: herbicidal effect by foliage application, plastic box (Table 20, symbol N); assay type: in vivo, redroot pigweed (Amaranthus retroflexus); settings: foliage application, three weeks after application; for herbicidal effect grade, N: redroot pigweed: 320 g/ha; for N: redroot pigweed, herbicidal effect: AAH 320 g/ha
Procedure, shortened: (§1)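 Plants sown in sterilized diluvial soil and grown 14 days in a greenhouse at 25° C to 30° C, then sprayed on the foliage with the compound's emulsion diluted in water to a predetermined herbicide amount. Injury to weeds and crops scored three weeks after application on a visual rating scale.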

[3] = system: chickweed; assay: Test Example 4: herbicidal effect by soil treatment (Table 19, symbol P); assay type: in vivo, common chickweed (Stellaria media); settings: amount of applied herbicide 320 g/ha
Procedure, shortened: (§2)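 Seeds were sown in sterilized diluvial soil and covered with about 1.5 cm of soil. An emulsion formulation diluted with water to a predetermined herbicide amount was sprayed evenly onto the soil surface. Plants grew in a greenhouse at 25° C. to 30° C., and the effect was scored three weeks after application using criteria from an earlier test.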

[4] = system: barnyard grass; assay: Test Example 5: herbicidal effect by foliage application, plastic box (Table 20, symbol H); assay type: in vivo, barnyard grass (Echinochloa crus-galli); settings: foliage application, three weeks after application; for herbicidal effect grade, H: barnyard grass: 320 g/ha; for H: barnyard grass, herbicidal effect: AAH 320 g/ha
Procedure, shortened: as §1

[5] = system: Italian ryegrass; assay: Test Example 5: herbicidal effect by foliage application, plastic box (Table 20, symbol K); assay type: in vivo, Italian ryegrass (Lolium multiflorum); settings: foliage application, three weeks after application; for herbicidal effect grade, K: Italian ryegrass: 320 g/ha; for K: Italian ryegrass, herbicidal effect: AAH 320 g/ha
Procedure, shortened: as §1

[6] = system: redroot pigweed; assay: Test Example 4: herbicidal effect by soil treatment (Table 19, symbol N); assay type: in vivo, redroot pigweed (Amaranthus retroflexus); settings: amount of applied herbicide 320 g/ha
Procedure, shortened: as §2

[7] = system: barnyard grass; assay: Test Example 4: herbicidal effect by soil treatment (Table 19, symbol H); assay type: in vivo, barnyard grass (Echinochloa crus-galli); settings: amount of applied herbicide 320 g/ha
Procedure, shortened: as §2

[8] = system: wild oat; assay: Test Example 5: herbicidal effect by foliage application, plastic box (Table 20, symbol I); assay type: in vivo, wild oat (Avena fatua); settings: foliage application, three weeks after application; for herbicidal effect grade, I: wild oat: 320 g/ha; for I: wild oat, herbicidal effect: AAH 320 g/ha
Procedure, shortened: as §1

[9] = system: lambsquarters; assay: Test Example 4: herbicidal effect by soil treatment (Table 19, symbol O); assay type: in vivo, lambsquarters (Chenopodium album); settings: amount of applied herbicide 320 g/ha
Procedure, shortened: as §2

[10] = system: persian speedwell; assay: Test Example 5: herbicidal effect by foliage application, plastic box (Table 20, symbol R); assay type: in vivo, Persian speedwell (Veronica persica); settings: foliage application, three weeks after application; for herbicidal effect grade, R: persian speedwell: 320 g/ha; for R: persian speedwell, herbicidal effect: AAH 320 g/ha
Procedure, shortened: as §1

[11] = system: blackgrass; assay: Test Example 5: herbicidal effect by foliage application, plastic box (Table 20, symbol J); assay type: in vivo, blackgrass (Alopecurus myosuroides); settings: foliage application, three weeks after application; for herbicidal effect grade, J: blackgrass: 320 g/ha; for J: blackgrass, herbicidal effect: AAH 320 g/ha
Procedure, shortened: as §1

[12] = system: blackgrass; assay: Test Example 4: herbicidal effect by soil treatment (Table 19, symbol J); assay type: in vivo, blackgrass (Alopecurus myosuroides); settings: amount of applied herbicide 320 g/ha
Procedure, shortened: as §2

[13] = system: velvetleaf; assay: Test Example 5: herbicidal effect by foliage application, plastic box (Table 20, symbol M); assay type: in vivo, velvetleaf (Abutilon theophrasti); settings: foliage application, three weeks after application; for herbicidal effect grade, M: velvetleaf: 320 g/ha; for M: velvetleaf, herbicidal effect: AAH 320 g/ha
Procedure, shortened: as §1

[14] = system: barnyard grass; assay: Test Example 3: herbicidal effect by foliage application, Wagner pot (Table 18, symbol H); assay type: in vivo, barnyard grass (Echinochloa crus-galli); settings: 320 g/ha
Procedure, shortened: (§3)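 Plants were sown in alluvial soil held under 0.1–0.5 cm standing water and grown 14 days in a greenhouse at 25–30 °C. An emulsifiable formulation, water-diluted to the set dose, was then sprayed onto the foliage, and effects were scored three weeks later using previously defined criteria.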

[15] = system: southern crabgrass; assay: Test Example 4: herbicidal effect by soil treatment (Table 19, symbol F); assay type: in vivo, southern crabgrass (Digitaria ciliaris); settings: amount of applied herbicide 320 g/ha
Procedure, shortened: as §2

[16] = system: Chinese sprangletop; assay: Test Example 3: herbicidal effect by foliage application, Wagner pot (Table 18, symbol D); assay type: in vivo, chinese sprangletop (Leptochloa chinensis); settings: 320 g/ha
Procedure, shortened: as §3

Row | Structure (SMILES) | herbicidal effect rating, A: late watergrass [1] | herbicidal effect grade, N: redroot pigweed [2] | herbicidal effect rating, P: chickweed [3] | herbicidal effect grade, H: barnyard grass [4] | herbicidal effect grade, K: Italian ryegrass [5] | herbicidal effect rating, N: redroot pigweed [6] | herbicidal effect rating, H: barnyard grass [7] | herbicidal effect grade, I: wild oat [8] | herbicidal effect rating, O: lambsquarters [9] | herbicidal effect grade, R: persian speedwell [10] | herbicidal effect grade, J: blackgrass [11] | herbicidal effect rating, J: blackgrass [12] | herbicidal effect grade, M: velvetleaf [13] | herbicidal effect on H (barnyard grass), rating 0-5 [14] | herbicidal effect rating, F: southern crabgrass [15] | herbicidal effect on D (Chinese sprangletop), rating 0-5 [16] | N: redroot pigweed, herbicidal effect [2] | H: barnyard grass, herbicidal effect [4] | K: Italian ryegrass, herbicidal effect [5] | I: wild oat, herbicidal effect [8] | further results
1 | Cc1cc(-c2sc3ccccc3c2-c2c(O)c(C)nn(C)c2=O)ccc1F [1-051] | 2 (Herbicidal rate of 20% or more and less than 40%) | 5 (Herbicidal rate of 90% or more (almost completely withered)) | 3 (Herbicidal rate of 40% or more and less than 70%) | 3 (Herbicidal rate of 40% or more and less than 70%) | 3 (Herbicidal rate of 40% or more and less than 70%) | 4 (Herbicidal rate of 70% or more and less than 90%) | 3 (Herbicidal rate of 40% or more and less than 70%) | 3 (Herbicidal rate of 40% or more and less than 70%) | 4 (Herbicidal rate of 70% or more and less than 90%) | 5 (Herbicidal rate of 90% or more (almost completely withered)) | 0 (Herbicidal rate of 5% or less (almost no effect)) | 0 (Herbicidal rate of 5% or less (almost no effect)) | 5 (Herbicidal rate of 90% or more (almost completely withered)) | 4 (Herbicidal rate of 70% or more and less than 90%) | 4 (Herbicidal rate of 70% or more and less than 90%) | 0 (Herbicidal rate of 5% or less (almost no effect)) | – | – | – | – | –
2 | CCOc1cc(F)ccc1-c1sc2ccccc2c1-c1c(O)c(C)nn(C)c1=O [1-061] | 0 (Herbicidal rate of 5% or less (almost no effect)) | 5 (Herbicidal rate of 90% or more (almost completely withered)) | 5 (Herbicidal rate of 90% or more (almost completely withered)) | 5 (Herbicidal rate of 90% or more (almost completely withered)) | 4 (Herbicidal rate of 70% or more and less than 90%) | 4 (Herbicidal rate of 70% or more and less than 90%) | 4 (Herbicidal rate of 70% or more and less than 90%) | 5 (Herbicidal rate of 90% or more (almost completely withered)) | 3 (Herbicidal rate of 40% or more and less than 70%) | 5 (Herbicidal rate of 90% or more (almost completely withered)) | 5 (Herbicidal rate of 90% or more (almost completely withered)) | 5 (Herbicidal rate of 90% or more (almost completely withered)) | 5 (Herbicidal rate of 90% or more (almost completely withered)) | 5 (Herbicidal rate of 90% or more (almost completely withered)) | 5 (Herbicidal rate of 90% or more (almost completely withered)) | 4 (Herbicidal rate of 70% or more and less than 90%) | – | – | – | – | –
3 | CCCC(=O)Oc1c(C)nn(C)c(=O)c1-c1c(-c2ccc(OC)c(OC)c2)sc2ccccc12 [1-073] | 4 (Herbicidal rate of 70% or more and less than 90%) | 5 (Herbicidal rate of 90% or more (almost completely withered)) | 4 (Herbicidal rate of 70% or more and less than 90%) | 5 (Herbicidal rate of 90% or more (almost completely withered)) | 5 (Herbicidal rate of 90% or more (almost completely withered)) | 4 (Herbicidal rate of 70% or more and less than 90%) | 4 (Herbicidal rate of 70% or more and less than 90%) | 2 (Herbicidal rate of 20% or more and less than 40%) | 5 (Herbicidal rate of 90% or more (almost completely withered)) | 5 (Herbicidal rate of 90% or more (almost completely withered)) | 4 (Herbicidal rate of 70% or more and less than 90%) | 2 (Herbicidal rate of 20% or more and less than 40%) | 5 (Herbicidal rate of 90% or more (almost completely withered)) | 5 (Herbicidal rate of 90% or more (almost completely withered)) | 5 (Herbicidal rate of 90% or more (almost completely withered)) | 3 (Herbicidal rate of 40% or more and less than 70%) | – | – | – | – | –
4 | CCCC(=O)Oc1c(C)nn(C)c(=O)c1-c1c(-c2ccc3c(c2)OCCO3)sc2ccccc12 [1-090] | 4 (Herbicidal rate of 70% or more and less than 90%) | – | 4 (Herbicidal rate of 70% or more and less than 90%) | – | – | 2 (Herbicidal rate of 20% or more and less than 40%) | 1 (Herbicidal rate of 5% or more and less than 20%) | – | 2 (Herbicidal rate of 20% or more and less than 40%) | – | – | 0 (Herbicidal rate of 5% or less (almost no effect)) | – | 5 (Herbicidal rate of 90% or more (almost completely withered)) | 0 (Herbicidal rate of 5% or less (almost no effect)) | 1 (Herbicidal rate of 5% or more and less than 20%) | 0 (Herbicidal rate of 5% or less (almost no effect)) | 4 (Herbicidal rate of 70% or more and less than 90%) | 3 (Herbicidal rate of 40% or more and less than 70%) | 0 (Herbicidal rate of 5% or less (almost no effect)) | R: persian speedwell, herbicidal effect [10]: 5 (Herbicidal rate of 90% or more (almost completely withered)); J: blackgrass, herbicidal effect [11]: 2 (Herbicidal rate of 20% or more and less than 40%); M: velvetleaf, herbicidal effect [13]: 4 (Herbicidal rate of 70% or more and less than 90%)
5 | COC(=O)Oc1c(C)nn(C)c(=O)c1-c1c(-c2ccc3c(c2)OCCO3)sc2ccccc12 [1-091] | 3 (Herbicidal rate of 40% or more and less than 70%) | – | 5 (Herbicidal rate of 90% or more (almost completely withered)) | – | – | 3 (Herbicidal rate of 40% or more and less than 70%) | 5 (Herbicidal rate of 90% or more (almost completely withered)) | – | 4 (Herbicidal rate of 70% or more and less than 90%) | – | – | 0 (Herbicidal rate of 5% or less (almost no effect)) | – | 5 (Herbicidal rate of 90% or more (almost completely withered)) | 3 (Herbicidal rate of 40% or more and less than 70%) | 1 (Herbicidal rate of 5% or more and less than 20%) | 5 (Herbicidal rate of 90% or more (almost completely withered)) | 5 (Herbicidal rate of 90% or more (almost completely withered)) | 4 (Herbicidal rate of 70% or more and less than 90%) | 2 (Herbicidal rate of 20% or more and less than 40%) | R: persian speedwell, herbicidal effect [10]: 5 (Herbicidal rate of 90% or more (almost completely withered)); J: blackgrass, herbicidal effect [11]: 3 (Herbicidal rate of 40% or more and less than 70%); M: velvetleaf, herbicidal effect [13]: 5 (Herbicidal rate of 90% or more (almost completely withered))
